Experimental data reported in PubChem BioAssay AID1919016 (Molecular Pharmacology Branch, DTP, NCI, 2023).

Tested on: NCI-H196 complex spheroid growth, percent test/control
Assay: Anticancer human tumor NCI-H196 cell line growth inhibition [AhR];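 note: seven days of drug exposure starting three days after plating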;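 for viability, T/C: 100% = DMSO vehicle control wells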
Conditions: for IC50: curve of first compound; for viability, T/C: stronger effect = lower value
How it was run: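 Complex tumor spheroids co-cultured with HUVEC and human MSC stroma; AhR antagonists tested in combination with standard-of-care and investigational agents. Top concentration at or near clinical Cmax (else 10 microM), half-log dilutions; growth expressed as percent test/control.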

[1] = second compound 0.1 µM, first compound 0.0316 µM
[2] = second compound 0.1 µM, first compound 0.1 µM
[3] = second compound 0.1 µM, first compound 0.316 µM
[4] = second compound 0.1 µM, first compound 1 µM
[5] = second compound 0.1 µM, first compound 3.16 µM
[6] = second compound 0.1 µM, first compound 10 µM
[7] = second compound 0.316 µM, first compound 0.0316 µM
[8] = second compound 0.316 µM, first compound 0.1 µM
[9] = second compound 0.316 µM, first compound 0.316 µM
[10] = second compound 0.316 µM, first compound 1 µM
[11] = second compound 0.316 µM, first compound 3.16 µM
[12] = second compound 0.316 µM, first compound 10 µM
[13] = second compound 1 µM, first compound 0.0316 µM
[14] = second compound 1 µM, first compound 0.1 µM
[15] = second compound 1 µM, first compound 0.316 µM
[16] = second compound 1 µM, first compound 1 µM
[17] = second compound 1 µM, first compound 3.16 µM
[18] = second compound 1 µM, first compound 10 µM
[19] = second compound 3.16 µM, first compound 0.0316 µM
[20] = second compound 3.16 µM, first compound 0.1 µM
[21] = second compound 3.16 µM, first compound 0.316 µM
[22] = second compound 3.16 µM, first compound 1 µM
[23] = second compound 3.16 µM, first compound 3.16 µM
[24] = second compound 3.16 µM, first compound 10 µM
[25] = second compound 10 µM, first compound 0.0316 µM
[26] = second compound 10 µM, first compound 0.1 µM
[27] = second compound 10 µM, first compound 0.316 µM
[28] = second compound 10 µM, first compound 1 µM
[29] = second compound 10 µM, first compound 3.16 µM
[30] = second compound 10 µM, first compound 10 µM

For `CC(C)c1c(-c2ccccc2)nc2c(C#N)c[nH]n2c1=O` + CC(CO)NC(=O)c1cc(-c2ccc(Cl)cc2)nn(-c2cnn(C)c2)c1=O, the IC50 (second compound 0.1 µM) was over 10 µM, the IC50 (second compound 0.316 µM) was over 10 µM and the IC50 (second compound 1 µM) was over 10 µM. It also gave an IC50 (second compound 3.16 µM) of over 10 µM, an IC50 (second compound 10 µM) of over 10 µM and a viability, T/C [1] of 118%. The viability, T/C [2] was 107%, the viability, T/C [3] was 111% and the viability, T/C [4] was 105%. It also gave a viability, T/C [5] of 104%, a viability, T/C [6] of 102% and a viability, T/C [7] of 116%. For the same compound, the viability, T/C [8] was 128%, the viability, T/C [9] was 109% and the viability, T/C [10] was 112%. For the same compound, the viability, T/C [11] was 108%, the viability, T/C [12] was 111% and the viability, T/C [13] was 111%. For the same compound, the viability, T/C [14] was 114%, the viability, T/C [15] was 117% and the viability, T/C [16] was 121%. The viability, T/C [17] was 118%, the viability, T/C [18] was 104% and the viability, T/C [19] was 109%. The viability, T/C [20] was 111%, the viability, T/C [21] was 118% and the viability, T/C [22] was 114%. The viability, T/C [23] was 117%, the viability, T/C [24] was 110% and the viability, T/C [25] was 116%. It also gave a viability, T/C [26] of 127%, a viability, T/C [27] of 114% and a viability, T/C [28] of 119%. It also gave a viability, T/C [29] of 111% and a viability, T/C [30] of 108%.

Compound `CC1COCCN1c1cc(-c2ccnn2C)c2ccnc(-c3ccn[nH]3)c2n1` (stereo not given) + CC(CO)NC(=O)c1cc(-c2ccc(Cl)cc2)nn(-c2cnn(C)c2)c1=O has an IC50 (second compound 0.1 µM) of over 1 µM, an IC50 (second compound 0.316 µM) of over 1 µM and an IC50 (second compound 1 µM) of over 1 µM. The IC50 (second compound 3.16 µM) was over 1 µM, the IC50 (second compound 10 µM) was over 1 µM and the viability, T/C (second compound 0.1 µM, first compound 0.00316 µM) was 104%. It also gave a viability, T/C (second compound 0.1 µM, first compound 0.01 µM) of 109%, a viability, T/C [1] of 101% and a viability, T/C [2] of 79.3%. The viability, T/C [3] was 72.2%, the viability, T/C [4] was 61.1% and the viability, T/C (second compound 0.316 µM, first compound 0.00316 µM) was 105%. The viability, T/C (second compound 0.316 µM, first compound 0.01 µM) was 98.9%, the viability, T/C [7] was 97.9% and the viability, T/C [8] was 78.6%. It also gave a viability, T/C [9] of 66.3%, a viability, T/C [10] of 68.5% and a viability, T/C (second compound 1 µM, first compound 0.00316 µM) of 108%. It also gave a viability, T/C (second compound 1 µM, first compound 0.01 µM) of 104%, a viability, T/C [13] of 101% and a viability, T/C [14] of 90.8%. The viability, T/C [15] was 77.4%, the viability, T/C [16] was 71% and the viability, T/C (second compound 3.16 µM, first compound 0.00316 µM) was 111%. The viability, T/C (second compound 3.16 µM, first compound 0.01 µM) was 102%, the viability, T/C [19] was 98% and the viability, T/C [20] was 82.4%. The viability, T/C [21] was 80%, the viability, T/C [22] was 66.5% and the viability, T/C (second compound 10 µM, first compound 0.00316 µM) was 103%. The viability, T/C (second compound 10 µM, first compound 0.01 µM) was 98.5%, the viability, T/C [25] was 107% and the viability, T/C [26] was 89.4%. It also gave a viability, T/C [27] of 74.2% and a viability, T/C [28] of 79.8%.

`COc1ccc([C@@H](O)c2cc(-c3ncnc4cc(N5CCOCC5)ccc34)c(F)cc2Cl)nn1` + CC(CO)NC(=O)c1cc(-c2ccc(Cl)cc2)nn(-c2cnn(C)c2)c1=O gave an IC50 (second compound 0.1 µM) of over 10 µM, an IC50 (second compound 0.316 µM) of over 10 µM and an IC50 (second compound 1 µM) of over 10 µM. It also gave an IC50 (second compound 3.16 µM) of over 10 µM, an IC50 (second compound 10 µM) of over 10 µM and a viability, T/C [1] of 102%. The viability, T/C [2] was 91.2%, the viability, T/C [3] was 94.5% and the viability, T/C [4] was 80.3%. For the same compound, the viability, T/C [5] was 75.6%, the viability, T/C [6] was 82.4% and the viability, T/C [7] was 109%. For the same compound, the viability, T/C [8] was 100%, the viability, T/C [9] was 94.9% and the viability, T/C [10] was 83.3%. For the same compound, the viability, T/C [11] was 80.2%, the viability, T/C [12] was 75.8% and the viability, T/C [13] was 107%. It also gave a viability, T/C [14] of 106%, a viability, T/C [15] of 102% and a viability, T/C [16] of 89.3%. The viability, T/C [17] was 77%, the viability, T/C [18] was 72.8% and the viability, T/C [19] was 108%. The viability, T/C [20] was 113%, the viability, T/C [21] was 114% and the viability, T/C [22] was 96.1%. For the same compound, the viability, T/C [23] was 84.1%, the viability, T/C [24] was 78.7% and the viability, T/C [25] was 115%. For the same compound, the viability, T/C [26] was 104%, the viability, T/C [27] was 95.4% and the viability, T/C [28] was 84.5%. It also gave a viability, T/C [29] of 75.8% and a viability, T/C [30] of 72.3%.

`O=C(C=Cn1cnc(-c2cc(C(F)(F)F)cc(C(F)(F)F)c2)n1)NNc1cnccn1` + CC(CO)NC(=O)c1cc(-c2ccc(Cl)cc2)nn(-c2cnn(C)c2)c1=O showed an IC50 (second compound 0.1 µM) of 0.0451 µM, an IC50 (second compound 0.316 µM) of 0.0374 µM and an IC50 (second compound 1 µM) of 0.0333 µM. It also gave an IC50 (second compound 3.16 µM) of 0.0384 µM, an IC50 (second compound 10 µM) of 0.0458 µM and a viability, T/C (second compound 0.1 µM, first compound 0.00949 µM) of 71.2%. The viability, T/C (second compound 0.1 µM, first compound 0.03 µM) was 71.1%, the viability, T/C (second compound 0.1 µM, first compound 0.0949 µM) was 11.6% and the viability, T/C (second compound 0.1 µM, first compound 0.3 µM) was 11.1%. It also gave a viability, T/C (second compound 0.1 µM, first compound 0.949 µM) of 7.23%, a viability, T/C (second compound 0.1 µM, first compound 3 µM) of 6.89% and a viability, T/C (second compound 0.316 µM, first compound 0.00949 µM) of 74.7%. It also gave a viability, T/C (second compound 0.316 µM, first compound 0.03 µM) of 58.2%, a viability, T/C (second compound 0.316 µM, first compound 0.0949 µM) of 14.9% and a viability, T/C (second compound 0.316 µM, first compound 0.3 µM) of 12.3%. For the same compound, the viability, T/C (second compound 0.316 µM, first compound 0.949 µM) was 8.19%, the viability, T/C (second compound 0.316 µM, first compound 3 µM) was 7.69% and the viability, T/C (second compound 1 µM, first compound 0.00949 µM) was 73.2%. It also gave a viability, T/C (second compound 1 µM, first compound 0.03 µM) of 53.6%, a viability, T/C (second compound 1 µM, first compound 0.0949 µM) of 14.3% and a viability, T/C (second compound 1 µM, first compound 0.3 µM) of 7.96%. The viability, T/C (second compound 1 µM, first compound 0.949 µM) was 8.07%, the viability, T/C (second compound 1 µM, first compound 3 µM) was 6.9% and the viability, T/C (second compound 3.16 µM, first compound 0.00949 µM) was 75.9%. The viability, T/C (second compound 3.16 µM, first compound 0.03 µM) was 59.1%, the viability, T/C (second compound 3.16 µM, first compound 0.0949 µM) was 16.4% and the viability, T/C (second compound 3.16 µM, first compound 0.3 µM) was 7.92%. For the same compound, the viability, T/C (second compound 3.16 µM, first compound 0.949 µM) was 6.29%, the viability, T/C (second compound 3.16 µM, first compound 3 µM) was 7.99% and the viability, T/C (second compound 10 µM, first compound 0.00949 µM) was 80.6%. The viability, T/C (second compound 10 µM, first compound 0.03 µM) was 69.1%, the viability, T/C (second compound 10 µM, first compound 0.0949 µM) was 17.2% and the viability, T/C (second compound 10 µM, first compound 0.3 µM) was 11.2%. It also gave a viability, T/C (second compound 10 µM, first compound 0.949 µM) of 10.8% and a viability, T/C (second compound 10 µM, first compound 3 µM) of 7.46%.
